Data set [1] in a line: Suspension stability by microcentrifuge dissolution test. The settings on record: dosed into MFDS. Type of data set: physicochemical. On the procedure:
Suspension stability of 10% A HPMCAS-H and 25% A HPMCAS-H formulations were evaluated using the microcentrifuge dissolution test, as detailed below.
First, a 0.5 wt % Methocel A (Methylcellulose, Methocel A4M Premium, DOW Chemical Company) vehicle was prepared and later used as the suspension vehicle. Specifically, this vehicle was prepared by adding 0.5 g of Methocel A to 30 mL deionized water at 90° C. and stirring until well dispersed. To the resultant dispersion was added 70 mL of water and the mixture was placed into an ice bath and stirred until Methocel A is dissolved.
A 20 mgA/mL indibulin SDD suspension of each of the 10% A HPMCAS-H and 25% A HPMCAS-H formulations was then prepared by adding the indibulin HPMCAS SDD to the aqueous 0.5 wt % Methocel A vehicle (as prepared above). Each suspension was then tested in the microcentrifuge dissolution test (as described above) immediately after constitution in the aqueous 0.5 wt % Methocel A vehicle (O-hour or Initial), and one hour after the constitution in the aqueous 0.5 wt % Methocel A vehicle. The stability of each suspension was determined by comparing the dissolution profile of the one-hour suspension to the performance of the initial suspension. […]

Data set [2] in a line: Rat pharmacokinetic study, first study. Type of data set: in vivo, rats (Sprague Dawley, male). The settings on record: plasma; for bioavailability: ratio of dose-normalized AUC0-10 oral/IV. On the procedure:
In the first study, the crystalline indibulin, 10% A and 25% A SDDs were administered p.o. at 10 and 15 mg/kg to rats (Sprague Dawley, male) and plasma concentrations of indibulin were determined at several time points.
In particular, all rats used in this study were fasted 12 hours prior to dose, and food was returned 4 hours post dose. 10% A and 25% A indibulin HPMCAS SDD formulations (as prepared in Example 1(a)) were used in this study. Indibulin in crystalline form was suspended in 0.5% Methocel A at 10 mg/kg, and 15 mg/kg by vortexing and sonicating. The indibulin SDD formulations were made by combining 10% active indibulin SDD at 10 mg/kg and 15 mg/kg, 25% active indibulin SDD at 10 mg/kg and 15 mg/kg using a mortar with 0.5% Methocel A and using a pestle to gradually mix in to solution. There were six rats per group, all animals were weighed and dose volume calculated so that each rat received test article orally at a volume of 10 mL/kg. The first three rats in each group were bled at 0.5, 2, and 6 hours post dose; the remaining three rats in each group were bled at 1, 4, and 10 hours post dose. For blood collection at all time points all animals were anesthetized with an inhalation of 4% isoflurane and 1.5% oxygen, once it was determined that the animal was adequately anesthetized (no reaction to physical stimulation) using a capillary tube the orbital venous plexus was punctured and a volume of 1 mL of blood was collected in to a sodium heparin tube. Once the blood was collected the sodium heparin tube was inverted ten times, and placed on ice until centrifuged for 10 minutes at 2510 rpm. The plasma was decanted in to labeled Eppendorfs and stored at −80° C. until analyzed by HPLC with MS/MS Detection. All data were acquired using Applied Biosystems/MDS-Sciex Analyst Version 1.5, processed; reported using Watson Version 7.3.0.01TM, Thermo Fisher Scientific, Inc.; and are summarized in FIGS. 12 and 14 and Tables 16, 17, and 18. Table 17 is summary of maximum plasma concentrations of indibulin (Cmax), time for maximum plasma concentration to occur (tmax), and plasma area under the curve values (AUC0-t). […] Table 18 also includes comparative data for a solutol/propylene glycol indibulin formulation, administered by IV and orally.

[3] abbreviates: male, Sprague Dawley, po, First Study, rat p.o. 15 mg/kg (90 mg/m^2).

The structures appear in SMILES notation. Read-outs that look alike come from different tables or passages of the source.

`O=C(Nc1ccncc1)C(=O)c1cn(Cc2ccc(Cl)cc2)c2ccccc12` [Bulk Crystalline Drug, indibulin] returned a Cmax90 in data set [1] (20 mgA/mL suspension in 0.5 wt % Methocel A, hold time 0 hr) of 2000 ng/mL. This compound also yielded an AUC90 in data set [1] (suspension hold time 0 hr) of 150 µg·min/mL. Moreover, the Tmax in data set [2] (Sprague Dawley, rat, Male S-D Rats, Oral (Gavage) 10 mg/kg) was found to be 2 h; in data set [2] (setting [3]) it was 1 h; in data set [2] (male, Sprague-Dawley, po, First Study, rat p.o. 10 mg/kg (60 mg/m^2)) it was 2 h. Moreover, the bioavailability in data set [2] (Sprague Dawley, rat, Male S-D Rats, Oral (Gavage) 15 mg/kg, read-out: F (%)) came to 1.5%; in data set [2] (Sprague-Dawley, rat, Male S-D Rats, Oral (Gavage) 10 mg/kg, read-out: F (%), absolute oral bioavailability), 2.4%. Moreover, in data set [2] (Sprague Dawley, rat, Male S-D Rats, Oral (Gavage) 15 mg/kg, read-out: Terminal t1/2 (converted)), the half-life was 5.9 h. Moreover, the Cmax in data set [2] (setting [3]) amounted to 6 ng/mL; in data set [2] (male, Sprague Dawley, rat, po, 10 mg/kg, Male S-D Rats, Oral (Gavage) 10 mg/kg), 18 ng/mL; in data set [2] (male, Sprague Dawley, rat, po, 15 mg/kg, Male S-D Rats, Oral (Gavage) 15 mg/kg), 16.5 ng/mL; in data set [2] (male, Sprague-Dawley, rat, po, 10 mg/kg, First Study, rat p.o. 10 mg/kg (60 mg/m^2)), 18 ng/mL; in data set [2] (male, Sprague-Dawley, rat, po, 15 mg/kg, Male S-D Rats, Oral (Gavage) 15 mg/kg) it was 13 ng/mL. The AUC(0-t) in data set [2] (male, Sprague Dawley, rat, po, 10 mg/kg, Male S-D Rats, Oral (Gavage) 10 mg/kg, read-out: AUC0-10) was determined as 63.6 ng·h/mL; in data set [2] (male, Sprague Dawley, rat, po, 15 mg/kg, First Study, rat p.o. 15 mg/kg (90 mg/m^2), read-out: AUC0-t), 31 ng·h/mL; in data set [2] (male, Sprague Dawley, rat, po, 15 mg/kg, Male S-D Rats, Oral (Gavage) 15 mg/kg, read-out: AUC0-10), 56.6 ng·h/mL; in data set [2] (male, Sprague-Dawley, rat, po, 10 mg/kg, First Study, rat p.o. 10 mg/kg (60 mg/m^2), read-out: AUC0-t) it was 61 ng·h/mL.

For the origin of these results see patent US20140004192A1, “PHARMACEUTICAL FORMULATIONS OF INDIBULIN AND USES THEREOF” (Ziopharm Oncology, Inc., priority 2012, published 2014).
